Common to all, as to test: MIC by agar dilution method
Format in all cases: cell-based
In general terms: In agar dilution the substance is mixed into plates at graded concentrations.

Test [1] has as its system Proteus vulgaris OKI 60002.
Test [2] deals with Helicobacter pylori 27604.
The subject of test [3] is Staphylococcus aureus ATCC 25923.
Test [4] concerns Helicobacter pylori 27606.
Test [5] has as its system Pseudomonas aeruginosa ATCC 27853. The settings on record: ATCC27853.
The subject of test [6] is Escherichia coli OKI 35034.
Test [7] deals with Staphylococcus epidermis OKI 110001. As to conditions: OKI110001.
The subject of test [8] is Salmonella typhi OKI 10084. As to conditions: Salmonella enterica, Salmonella typhi OKI 10084, agar dilution.
In test [9] the test system is Streptococcus fecalis OKI 80171. The settings on record: OKI80171, Streptococcus fecalis OKI 80171, agar dilution.
Where [10] appears, read: Proteus vulgaris, OKI60002, Proteus vulgaris OKI 60002, agar dilution, read-out: MIC.
Setting [11] is: Helicobacter pylori 27604, agar dilution, read-out: MIC.
The mark [12] stands for this setting: ATCC25923, Staphylococcus aureus ATCC 25923, agar dilution, read-out: MIC.
The mark [13] stands for this setting: Helicobacter pylori 27606, agar dilution, read-out: MIC.
[14] abbreviates: Escherichia coli, OKI35034, Escherichia coli OKI 35034, agar dilution, read-out: MIC.

≈ marks a conversion by molar mass, not a printed value. Read-outs that look alike come from different tables or passages of the source.

We go through three molecules from patent US6333424A, “Therapeutic derivatives of diphosphonates” (priority 1999, dated 2001).

The MIC is the lowest concentration found to suppress growth.

`CC1(C)S[C@@H]2[C@H](NC(=O)[C@H](N)c3ccc(O)cc3)C(=O)N2[C@H]1C(=O)O` [Amoxicillin, amoxicillin]: the MIC in test [1] (Proteus vulgaris OKI 60002, agar dilution) was 100 µg/mL (≈ 274 µM); in test [1] (setting [10]) it was 50 µg/mL (≈ 137 µM); in [2] (setting [11]) it was no less than 0.39 µg/mL; in test [3] (setting [12]) it was no less than 0.39 µg/mL; in test [4] (setting [13]), no less than 0.39 µg/mL; in test [5] (Pseudomonas aeruginosa ATCC 27853, agar dilution, read-out: MIC) it was greater than 100 µg/mL. Besides, the MIC in test [6] (Escherichia coli OKI 35034, agar dilution) was 50 µg/mL (≈ 137 µM); in test [6] (setting [14]), 25 µg/mL (≈ 68.4 µM); in test [7] (Staphylococcus epidermis OKI 110001, agar dilution, read-out: MIC), no less than 0.39 µg/mL.
Turning to `CCOP(=O)(OCC)C(CSCC(=O)OCOC(=O)N1CCN(c2cc3c(cc2F)c(=O)c(C(=O)O)cn3CC)CC1)P(=O)(OCC)OCC` [Example 1 B, 7-(4-((2,2-Bis-(diethoxyphosphoryl)-ethylsulfanyl)-acetoxymethoxycarbonyl)-piperazin-1-yl)-1-ethyl-6-fluoro-4-oxo-1,4-dihydroquinoline-3-carboxylic acid], the MIC in [1] (Proteus vulgaris, OKI60002) is 1.56 µg/mL (≈ 2.03 µM); in test [8] (read-out: MIC) it was no less than 0.78 µg/mL; in test [2] (Helicobacter pylori, 27604), 6.25 µg/mL (≈ 8.14 µM); in [3] (ATCC25923), 6.25 µg/mL (≈ 8.14 µM); in [9], 12.5 µg/mL (≈ 16.3 µM); in test [4] (Helicobacter pylori, 27606), 3.12 µg/mL (≈ 4.06 µM). The MIC in test [5] (Pseudomonas aeruginosa) is 12.5 µg/mL (≈ 16.3 µM); in test [6] (Escherichia coli, OKI35034, Escherichia coli OKI 35034, agar dilution), no less than 0.39 µg/mL; in test [7] (Staphylococcus) it was 1.56 µg/mL (≈ 2.03 µM).
On to `CCn1cc(C(=O)O)c(=O)c2cc(F)c(N3CCNCC3)cc21` [Norfloxacin, norfloxacin], for which the MIC in [1] (setting [10]) is 0.78 µg/mL (≈ 2.44 µM); in [8] (TYPHI) it was no less than 0.39 µg/mL; in test [2] (setting [11]) it was 6.25 µg/mL (≈ 19.6 µM); in [3] (setting [12]) it was 6.25 µg/mL (≈ 19.6 µM); in [9], 12.5 µg/mL (≈ 39.1 µM); in test [4] (setting [13]), 6.25 µg/mL (≈ 19.6 µM). Further, the MIC in test [5] (Pseudomonas aeruginosa) was 12.5 µg/mL (≈ 39.1 µM); in test [6] (setting [14]) it was no less than 0.39 µg/mL; in [7] (Staphylococcus) it was 1.56 µg/mL (≈ 4.89 µM).
